Laboratory results: ChEMBL document CHEMBL3879901, “Substituted isoquinolin-1(2H)-ones, and methods of use thereof” (2012)
Calls of active or inactive are those of the source. No cut-off for these calls is given here.

Columns and labels:
[1] = tested on: Rattus norvegicus; assay: Antiarthritic activity in type 2 collagen-induced po dosed Lewis rat arthritis model assessed as reduction in knee pannus administered every 12 hrs for 16 days measured on day 17 of post last dose by toluidine blue staining-based assay; assay type: functional, organism-based
[2] = molecular target: PI3K p110 beta/p85 alpha (Homo sapiens, UniProt P42338); assay: Inhibition of N-terminal His6-tagged recombinant full-length human p110beta/untagged recombinant full length p85alpha expressed in baculovirus infected Sf21 cells using phosphatidylinositol as substrate in presence of gamma-32P-ATP after 5 mins by thin layer chromatographic method
[3] = tested on: Rattus norvegicus; assay: Antiarthritic activity in type 2 collagen-induced po dosed Lewis rat arthritis model assessed as reduction in knee inflammation administered every 12 hrs for 16 days measured on day 17 of post last dose by toluidine blue staining-based assay; assay type: functional, organism-based
[4] = molecular target: T1, Phosphatidylinositol 4,5-bisphosphate 3-kinase catalytic subunit delta isoform (Mus musculus) (UniProt O35904); assay: Inhibition of PI3Kdelta in LPS or anti-CD40/IL4-stimulated mouse B cells assessed as decrease in IgE response in presence of mTOR inhibitor rapamycin; assay type: cell-based
T1 sequence (whole entry): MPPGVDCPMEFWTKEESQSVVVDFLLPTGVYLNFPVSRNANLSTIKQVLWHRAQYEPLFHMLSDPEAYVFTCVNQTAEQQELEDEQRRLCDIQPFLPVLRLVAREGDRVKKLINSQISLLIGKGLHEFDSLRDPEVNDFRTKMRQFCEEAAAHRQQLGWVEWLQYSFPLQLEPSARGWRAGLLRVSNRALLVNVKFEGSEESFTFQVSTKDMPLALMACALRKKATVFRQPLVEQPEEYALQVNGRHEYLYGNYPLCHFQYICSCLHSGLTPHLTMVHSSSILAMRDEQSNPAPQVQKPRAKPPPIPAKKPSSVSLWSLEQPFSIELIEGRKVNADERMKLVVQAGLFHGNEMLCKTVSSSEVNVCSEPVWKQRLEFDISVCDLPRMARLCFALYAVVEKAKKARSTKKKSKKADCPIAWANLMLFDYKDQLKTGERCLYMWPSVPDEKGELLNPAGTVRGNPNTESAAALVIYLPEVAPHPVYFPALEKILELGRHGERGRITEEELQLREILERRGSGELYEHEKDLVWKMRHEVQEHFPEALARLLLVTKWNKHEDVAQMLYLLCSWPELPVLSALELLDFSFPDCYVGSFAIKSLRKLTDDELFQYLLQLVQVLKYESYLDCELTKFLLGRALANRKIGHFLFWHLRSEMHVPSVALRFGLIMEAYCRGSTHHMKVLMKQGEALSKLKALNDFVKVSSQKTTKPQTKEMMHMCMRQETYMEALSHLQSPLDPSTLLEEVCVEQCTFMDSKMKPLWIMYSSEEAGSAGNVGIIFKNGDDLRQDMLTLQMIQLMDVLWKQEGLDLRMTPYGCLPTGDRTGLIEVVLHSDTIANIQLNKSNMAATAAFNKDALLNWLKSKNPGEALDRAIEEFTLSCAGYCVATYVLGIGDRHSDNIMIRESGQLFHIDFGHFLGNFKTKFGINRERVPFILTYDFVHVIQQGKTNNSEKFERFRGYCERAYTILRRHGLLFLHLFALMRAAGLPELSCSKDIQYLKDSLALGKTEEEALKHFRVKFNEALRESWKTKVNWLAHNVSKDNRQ

[5] = tested on: Rattus norvegicus; assay: Antiarthritic activity in type 2 collagen-induced Lewis rat arthritis model assessed as reduction in serum anti-type 2 collagen levels at 60 mg/kg, po administered every 12 hrs for 16 days measured on day 17 of post last dose by ELISA relative to control; assay type: functional; parameters: scale not given: the % may be the effect or the level left
[6] = tested on: Rattus norvegicus; assay: Antiarthritic activity in type 2 collagen-induced Lewis rat arthritis model assessed as reduction in bone resorption in ankle at 60 mg/kg, po administered every 12 hrs for 16 days measured on day 17 of post last dose by toluidine blue staining-based assay; assay type: functional, organism-based
[7] = Antiproliferative activity against Balb/c mouse splenic B cells preincubated for 30 mins followed by LPS or F(ab')2 donkey anti-mouse IgM and recombinant mouse IL4 stimulation measured after 72 hrs by Alamar Blue reduction assay; assay type: functional, cell-based
[8] = tested on: Rattus norvegicus; assay: Antiarthritic activity in type 2 collagen-induced po dosed Lewis rat arthritis model assessed as reduction in cartilage damage in knee administered every 12 hrs for 16 days measured on day 17 of post last dose by toluidine blue staining-based assay; assay type: functional, organism-based
[9] = tested on: Mus musculus; assay: Reduction of TNP-Ficoll-induced T cell independent B cell activation in BDA-1 mouse assessed as decrease in IgG3 levels in serum at 1 mg/kg, po bid administered for 7 days by ELISA relative to control; assay type: functional
[10] = tested on: Rattus norvegicus; assay: Antiarthritic activity in collagen-induced Lewis rat arthritis model assessed as reduction in ankle joint swelling administered for 6 days post arthritis induction measured every day during compound dosing and day 7 of post last dose in presence of mTOR inhibitor rapamycin; assay type: functional
[11] = tested on: Mus musculus; assay: Reduction of TNP-Ficoll-induced T cell independent B cell activation in BDA-1 mouse assessed as decrease in IgG3 levels in serum at 10 mg/kg, po bid administered for 7 days by ELISA relative to control; assay type: functional
[12] = tested on: Rattus norvegicus; assay: Antiarthritic activity in type 2 collagen-induced Lewis rat arthritis model assessed as reduction in ankle diameter at 10 to 60 mg/kg, po bid administered for 6 days measured every day of compound dosing and day 7 of post last dose; assay type: functional, organism-based
[13] = organism: Mus musculus; assay: Inhibition of TNP-Ficoll or TNP-KHL-stimulated IgG3 response in mouse in presence of mTOR inhibitor rapamycin by ELISA relative to vehicle-treated control; assay type: functional
[14] = tested on: Rattus norvegicus; assay: Antiarthritic activity in type 2 collagen-induced Lewis rat arthritis model assessed as reduction in ankle inflammation at 60 mg/kg, po administered every 12 hrs for 16 days measured on day 17 of post last dose by toluidine blue staining-based assay; assay type: functional, organism-based
[15] = tested on: Rattus norvegicus; assay: Antiarthritic activity in type 2 collagen-induced Lewis rat arthritis model assessed as reduction in ankle pannus at 60 mg/kg, po administered every 12 hrs for 16 days measured on day 17 of post last dose by toluidine blue staining-based assay; assay type: functional, organism-based
[16] = tested on: Rattus norvegicus; assay: Antiarthritic activity in type 2 collagen-induced Lewis rat arthritis model assessed as reduction in cartilage damage in ankle at 60 mg/kg, po administered every 12 hrs for 16 days measured on day 17 of post last dose by toluidine blue staining-based assay; assay type: functional, organism-based
[17] = tested on: Rattus norvegicus; assay: Antiarthritic activity in type 2 collagen-induced Lewis rat arthritis model assessed as reduction in serum anti-type 2 collagen levels at 10 mg/kg, po administered every 12 hrs for 16 days measured on day 17 of post last dose by ELISA relative to control; assay type: functional; parameters: scale not given: the % may be the effect or the level left
[18] = tested on: Rattus norvegicus; assay: Antiarthritic activity in type 2 collagen-induced Lewis rat arthritis model assessed as reduction in ankle diameter at 10 to 60 mg/kg, po administered every 12 hrs for 16 days measured on day 9 of compound dosing to day 17 of post last dose relative to vehicle-treated control; assay type: functional, organism-based
[19] = tested on: Mus musculus; assay: Reduction of TNP-Ficoll-induced T cell independent B cell activation in BDA-1 mouse assessed as decrease in IgG3 levels in serum at 3 mg/kg, po bid administered for 7 days by ELISA relative to control; assay type: functional

PI3K p110 beta/p85 alpha, sequence (P27986 whole entry): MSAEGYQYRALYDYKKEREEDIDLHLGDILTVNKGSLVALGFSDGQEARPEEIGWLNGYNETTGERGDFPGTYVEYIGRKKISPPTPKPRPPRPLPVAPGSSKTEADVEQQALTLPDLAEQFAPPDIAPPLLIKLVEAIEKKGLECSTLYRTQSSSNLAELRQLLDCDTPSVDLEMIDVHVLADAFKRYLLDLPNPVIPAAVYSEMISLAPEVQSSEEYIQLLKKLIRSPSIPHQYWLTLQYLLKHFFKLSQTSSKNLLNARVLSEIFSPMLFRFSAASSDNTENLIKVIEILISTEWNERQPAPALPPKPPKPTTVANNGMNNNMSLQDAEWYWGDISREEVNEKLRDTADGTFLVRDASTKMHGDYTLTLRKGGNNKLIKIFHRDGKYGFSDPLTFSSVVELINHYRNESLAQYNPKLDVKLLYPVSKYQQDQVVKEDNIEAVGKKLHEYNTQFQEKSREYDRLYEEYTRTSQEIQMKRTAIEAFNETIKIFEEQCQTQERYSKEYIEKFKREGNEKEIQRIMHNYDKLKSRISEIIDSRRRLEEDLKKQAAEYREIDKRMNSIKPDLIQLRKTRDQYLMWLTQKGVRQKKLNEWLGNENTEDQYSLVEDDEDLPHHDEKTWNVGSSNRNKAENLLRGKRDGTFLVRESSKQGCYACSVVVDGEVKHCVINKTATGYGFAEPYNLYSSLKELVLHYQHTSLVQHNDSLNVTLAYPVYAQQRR
PI3K p110 beta/p85 alpha, sequence (P42338 whole entry): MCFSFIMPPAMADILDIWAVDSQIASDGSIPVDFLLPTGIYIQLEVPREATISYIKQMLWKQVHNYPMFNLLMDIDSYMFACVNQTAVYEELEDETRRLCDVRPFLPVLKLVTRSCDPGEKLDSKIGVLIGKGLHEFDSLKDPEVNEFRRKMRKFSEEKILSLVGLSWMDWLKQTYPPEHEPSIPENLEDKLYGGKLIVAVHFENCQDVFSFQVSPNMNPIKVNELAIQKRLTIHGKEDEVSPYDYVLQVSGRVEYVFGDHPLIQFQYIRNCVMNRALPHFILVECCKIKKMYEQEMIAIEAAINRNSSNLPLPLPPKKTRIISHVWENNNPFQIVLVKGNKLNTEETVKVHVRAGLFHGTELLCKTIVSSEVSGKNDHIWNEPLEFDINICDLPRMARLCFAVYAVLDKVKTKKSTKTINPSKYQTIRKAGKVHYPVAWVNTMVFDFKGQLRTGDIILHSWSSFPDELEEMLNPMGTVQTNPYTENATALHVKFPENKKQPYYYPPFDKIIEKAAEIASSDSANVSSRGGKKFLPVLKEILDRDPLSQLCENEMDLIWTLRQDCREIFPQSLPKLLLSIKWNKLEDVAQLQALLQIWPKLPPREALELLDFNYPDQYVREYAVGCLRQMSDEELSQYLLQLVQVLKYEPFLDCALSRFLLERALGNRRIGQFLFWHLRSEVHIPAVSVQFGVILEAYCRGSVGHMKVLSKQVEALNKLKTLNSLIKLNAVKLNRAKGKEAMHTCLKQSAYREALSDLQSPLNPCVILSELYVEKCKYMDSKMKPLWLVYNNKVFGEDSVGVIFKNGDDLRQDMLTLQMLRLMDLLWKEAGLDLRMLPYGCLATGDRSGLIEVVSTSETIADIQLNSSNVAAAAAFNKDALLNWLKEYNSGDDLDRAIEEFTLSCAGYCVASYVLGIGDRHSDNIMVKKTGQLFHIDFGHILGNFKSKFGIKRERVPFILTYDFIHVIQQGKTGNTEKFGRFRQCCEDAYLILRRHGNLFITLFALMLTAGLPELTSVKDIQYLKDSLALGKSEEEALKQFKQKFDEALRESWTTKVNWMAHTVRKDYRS

CC(=O)Nc1nc2ccc(-c3nn(Cc4cc5cccc(C)c5c(=O)n4-c4ccccc4C)c4ncnc(N)c34)cc2s1
Activity [1]: Dose-dependent effect
IC50 [2]: < 10 µM
Activity [3]: Dose-dependent effect
inhibition [4]: Active
Activity [5]: 86%
Activity [6]: Active
EC50 [7]: < 0.1 µM
Activity [8]: Dose-dependent effect
fold change (FC) [9]: 0.6
Activity [10]: Active
fold change (FC) [11]: 1.4
Activity [12]: Active
inhibition [13]: Active
Activity [14]: Active
Activity [15]: Active
Activity [16]: Active
Activity [17]: 75%
Activity [18]: Active
fold change (FC) [19]: 0.8
